Values of other authors, collected in patent EP4570255A1, “SPORICIDAL ANTIMICROBIAL COMPOSITIONS AND USES THEREOF” (Silva, Renata Moisés Iwamizu, priority 2022, dated 2024).
Where a name gives a salt, the structure may show the parent alone.

| Structure (SMILES) | solubility in water |
| --- | --- |
| [H]/N=C(\N/C(=N/[H])NCCCCCCNC(=N)NC(=N)Nc1ccc(Cl)cc1)Nc1ccc(Cl)cc1 [diacetate salt, 1,1'-hexamethylene-bis-(5-(p-chlorophenyl)biguanide)] | about 1.8% |
| [H]/N=C(\N/C(=N/[H])NCCCCCCNC(=N)NC(=N)Nc1ccc(Cl)cc1)Nc1ccc(Cl)cc1 [digluconate salt, 1,1'-hexamethylene-bis-(5-(p-chlorophenyl)biguanide)] | about 70% |
